Usually IC50 stands for the concentration at which inhibition is half-maximal. A low value points to inhibition by little substance.

Holding throughout (format): cell-based
The subject of test [1] is HCC4006 (exon 19 deletion) cells. The test can be described thus: Cell viability assay. The settings on record: Homo sapiens, HCC4006, 72 h.
For test [2], the system named is PC9 (exon 19 deletion) cells. The test can be described thus: Cell viability assay. The settings on record: for IC50: Homo sapiens, PC-9, 72 h.
Test [3] has as its system H1975 (Leu858Arg and Thr790Met) cells. The test can be described thus: cells. The settings on record: for IC50: Homo sapiens, NCI-H1975, 72 h.
In test [4] the test system is phospho-STAT3 in PC9 cells. The test can be described thus: Immunofluorescence and imaging flow cytometry of STAT3 / phospho-STAT3. The settings on record: 24 h. A general note: A flow cytometer gives signals particle by particle.
Test [5] has as its system EGFR downstream signal transduction pathways and RTKs. The test can be described thus: Western blotting, osimertinib with TPX-0005, PC9, 11–18 and H1975 cell lines. The settings on record: TPX-0005 1 μM, 24 h.
Test [6] concerns mRNA expression of RTK and non-RTK genes. The test can be described thus: Quantitative RT-PCR after treatment, PC9 and H1975 cells. The settings on record: TPX-0005 1 μM alone or combined with an EGFR TKI, five days.
The test system of test [7] is HCC827 (exon 19 deletion) cells. The test can be described thus: Cell viability assay. The settings on record: Homo sapiens, HCC827, 72 h.
Test [8] relates to STAT3 and FAK phosphorylation. The test can be described thus: Western blotting, dasatinib or TPX-0005, PC9 and H1975 cell lines. The settings on record: dasatinib 50 and 100 μM respectively, 24 h.
The next test concerns 11–18 (Leu858Arg) cells. The test can be described thus: cells. The settings on record: 72 h.
Where [9] appears, read: osimertinib 0.05, 0.8 and 0.02 μM respectively.

Structures are written as SMILES.

With `C[C@H]1CNC(=O)c2cnn3ccc(nc23)N[C@H](C)c2cc(F)ccc2O1` [TPX-0005], the IC50 amounted to 1.48 µM in test [1], 1 µM in [2] and 1 µM in [3]. Besides, the “interaction of TPX-0005 with gefitinib (cell viability, colony formation)” value in [2] (PC9 cells) was “synergistic”. In [3], the “interaction of TPX-0005 with osimertinib (cell viability, colony formation)” value is recorded as “synergistic”. The “STAT3 activation state by intracellular localization (immunofluorescence)” value in test [4] was “did not occur”. In addition, the “AXL total protein expression” value in test [5] was “minor effect”. Besides, in [5] (setting [9]), the CDCP1 phosphorylation result was “diminished”. In addition, in test [5] (setting [9]), the “Src and FAK phosphorylation” value was “abrogated”. Also, the “mRNA expression of most of the transcripts explored” value in test [6] is “abolished or attenuated”.
In the case of `C=CC(=O)Nc1cc(Nc2nccc(-c3cn(C)c4ccccc34)n2)c(OC)cc1N(C)CCN(C)C` [Osimertinib], the IC50 in test [7] was 0.01 µM; in test [1], 0.01 µM; in test [2], 0.02 µM; in [3], 0.02 µM. Besides, in test [5] (setting [9]), the “Src and FAK phosphorylation” value is “induced”.
For `Cc1nc(Nc2ncc(C(=O)Nc3c(C)cccc3Cl)s2)cc(N2CCN(CCO)CC2)n1` [Dasatinib], the “STAT3 and FAK phosphorylation” value in test [8] was “induced”.
In the case of `COc1cc2ncnc(Nc3ccc(F)c(Cl)c3)c2cc1NC(=O)/C=C/CN1CCCCC1` [Dacomitinib], the IC50 in test [7] is below 0.01 µM; in the test with 11–18 (Leu858Arg) cells, 0.01 µM; in test [1], below 0.01 µM; in test [2], below 0.01 µM.

These data come from publication PMC5925453 (EBioMedicine, 2018).
